This note sets out measurements from PMC8748766, “The catalytic activity of TCPTP is auto-regulated by its intrinsically disordered tail and activated by Integrin alpha-1” (Nature Communications, 2022).

For one assay, the target named is T1, TCPTP (Homo sapiens, UniProt P17706).
T1 construct: fragments of TCPTP (residues: 1–387); His6 (N, cleaved yes); made in house; host or cells: E. coli BL21 (DE3) RIL
T1 sequence (P17706 1-387 isoform P17706-2): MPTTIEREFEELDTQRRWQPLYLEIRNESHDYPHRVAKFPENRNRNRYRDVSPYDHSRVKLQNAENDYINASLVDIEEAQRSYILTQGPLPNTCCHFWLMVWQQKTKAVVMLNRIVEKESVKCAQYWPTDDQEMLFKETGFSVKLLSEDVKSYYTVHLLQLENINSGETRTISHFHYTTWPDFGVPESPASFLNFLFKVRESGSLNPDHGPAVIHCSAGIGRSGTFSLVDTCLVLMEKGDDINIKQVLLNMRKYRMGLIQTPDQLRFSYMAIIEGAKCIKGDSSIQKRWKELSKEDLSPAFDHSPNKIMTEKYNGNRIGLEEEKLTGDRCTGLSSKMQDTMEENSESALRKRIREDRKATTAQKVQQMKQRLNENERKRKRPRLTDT
As to the kind of experiment: Kinetics of TCPTP with saturating ITGA1 peptide, pEGFR peptide-1 substrate. Type of assay: biochemical. Particulars: TCPTP saturated with ITGA1 peptide (ITGA1_TR 1 μM; ITGA1_FCT 25 μM), mean ± SE, n = 9. The source says:
(§1) Polymerase chain reaction (PCR) fragments of TCPTP (residues: 1–387) TCPTPCAT (catalytic domain, residues: 1–288, 1–302 or 1–314), TCPTPTail (C-terminal tail, residues: 289–387 or 303–387) were amplified from full-length human TCPTP (TC45 isoform). TCPTP, TCPTPCAT (residues: 1–288, 1–314), and TCPTPTail (residues: 289–387) fragments were cloned into pMCSG7 including a N-terminal His6-tag using ligation-independent cloning. For all NMR experiments, the PCR fragments of TCPTP, TCPTPCAT (residues: 1–302) and TCPTPTail (residue: 303–387) were sub-cloned into pRP1B as previously described.
(§2) The rate of dephosphorylation of TCPTP and TCPTPCAT (residue 1–314) against 2 phosphotyrosine peptides derived from EGFR was monitored either with or without ITGA1 peptide (ITGA1_FCT & ITGA1_TR) in assay buffer (25 mM Hepes pH 7.4, 50 mM NaCl and 1 mM DTT). Lyophilized powder of all synthetic peptides was dissolved in assay buffer without DTT (phosphopeptides, 5 mM; ITGA1 peptides, 2 mM). For the kinetic analysis, the concentration of the enzyme was fixed at 1 nM while the substrate (phosphopeptides) concentration was varied from 2.5 μM to 160 μM in a total reaction volume of 200 μl. Effect of ITGA1 peptide on TCPTP & TCPTPCAT kinetics were assessed in saturated condition by adding an excess amount of ITGA1 peptide to the reaction mixture (ITGA1_TR = 1 μM; ITGA1_FCT = 25 μM). The reaction was incubated at 30 °C for 30 min and stopped by the addition of 30 μl phosphate reagent (phosphate colorimetric assay kit; Bio Vision) following the manufacturer’s instructions. Data were normalized and fitted using a nonlinear curve, and kinetics parameters (KM and kcat) were calculated from the Michaelis-Menten equation using Graph Pad Prism 9.0. All data points in the enzyme kinetics experiment were measured in triplicate, and the experiments were repeated three times.

Assay [1] has as its target T2, TCPTPCAT (Homo sapiens, UniProt P17706).
T2 construct: TCPTP and TCPTPCAT (residue 1–314) against 2 phosphotyrosine peptides derived from EGFR; His6 (N, cleaved yes); made in house; host or cells: E. coli BL21 (DE3) RIL
T2 sequence (P17706 1-314 isoform P17706-2): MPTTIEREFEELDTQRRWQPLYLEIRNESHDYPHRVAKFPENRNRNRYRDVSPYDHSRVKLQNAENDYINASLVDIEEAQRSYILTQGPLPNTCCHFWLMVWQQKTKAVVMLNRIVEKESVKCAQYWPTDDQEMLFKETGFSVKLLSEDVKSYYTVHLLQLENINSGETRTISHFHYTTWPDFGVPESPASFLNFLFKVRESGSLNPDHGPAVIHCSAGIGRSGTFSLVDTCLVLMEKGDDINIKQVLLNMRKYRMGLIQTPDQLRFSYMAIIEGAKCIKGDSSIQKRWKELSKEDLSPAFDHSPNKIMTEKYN
As to the kind of experiment: Kinetics of TCPTPCAT with saturating ITGA1 peptide, pEGFR peptide-1 substrate. Type of assay: biochemical. Particulars: TCPTPCAT saturated with ITGA1 peptide (ITGA1_TR 1 μM), mean ± SE, n = 9.
Source text: as §1, §2

For assay [2], the target named is T2, TCPTPCAT
As to the kind of experiment: NMR titration (2D HSQC/TROSY) binding to TCPTPCAT
The conditions noted are these: 2D [1H,15N] TROSY, unlabeled ligand added.
Source text: as §1
NMR data were collected on either Bruker NEO 600 MHz or 800 MHz spectrometers equipped with TCI HCN z-gradient cryoprobes at 298 K or 283 K. NMR measurements of TCPTP’s variant construct were recorded using (^1H,^15N)-, (^2H,^15N)-, (^1H,^15N,^13C), or (^2H,^15N,^13C)-labeled protein at a final concentration of 0.6 mM for backbone assignment or 0.1 mM for titration in NMR buffer and 90% H2O/10% D2O. The sequence-specific backbone assignments of TCPTP (residues 1–387), TCPTPCAT (residues 1–302), TCPTPTail (residues 303–387) and other variants were achieved using 3D triple resonance experiments including […], 3D HNCA, 3D HN(CO)CA, 3D HN(CO)CACB, and 3D HNCACB either as HSQC or TROSY variations. All NMR data were processed using TopSpin 4.0.5[44] and analyzed using either CARA (http://www.cara.nmr.ch) and/or CcpNMR[45].

[3] abbreviates: pEGFR peptide-1, 1 nM enzyme, pH 7.4, 30 °C 30 min.

Turning to “RPLKKKMEKRPLKKKMEK [ITGA1_TR, ITGA1 tandem repeat (2x ITGA1_TCT): …]”, the kcat on TCPTP (setting [3]) turned out to be 26.2 ± 0.6 s⁻¹; on TCPTPCAT [1] (setting [3]), 31.1 ± 0.7 s⁻¹. The Km on TCPTP (pEGFR peptide-1, pH 7.4, 30 °C) is 15.9 ± 1.3 µM; at TCPTPCAT [1] (pEGFR peptide-1, pH 7.4, 30 °C), 23 ± 1.6 µM. Besides, the kcat/Km was 1.6e+06 ± 100000 M⁻¹ s⁻¹ on TCPTP (pEGFR peptide-1) and 1.3e+06 ± 100000 M⁻¹ s⁻¹ at TCPTPCAT [1] (pEGFR peptide-1). The “NMR titration: CSPs in (2H,15N)-labeled TCPTPCAT” value on TCPTPCAT [2] is on record as “significant CSPs in the same residues”.
